Assay results reported in patent publication US10710978B2, “STK4 inhibitors for treatment of hematologic malignancies” (Dana-Farber Cancer Institute, Inc., priority 2015, dated 2020).
Like-named read-outs stand apart in the source and are kept apart here.

Columns and labels:
Test in all cases: KiNativ assay
Type in all cases: binding
Details in all cases: H929 live cell
[1] = test system: ZC1/HGK, ZC2/TNIK, ZC3/MINK
Experimental: (§1) Biochemical IC50s of the compounds of the present disclosure against various kinases were measured in a KiNativ assay. Compounds were screened in duplicate at 10 μM in H929 live cell. IC50 was measured via Mass spectroscopy (MS).

MPSK1 = MPSK1 (Homo sapiens (Human), UniProt O75716)
Experimental: as §1

MAPKAPK2, MAPKAPK3 = test system: MAPKAPK2, MAPKAPK3
Experimental: as §1

PHKg2 = PHKg2 (Homo sapiens (Human), UniProt P15735)
Experimental: as §1

RSK1 domain2 = RSK1 domain2 (Homo sapiens (Human), UniProt Q15418)
Experimental: as §1

GCN2 domain2 = GCN2 domain2 (Homo sapiens (Human), UniProt Q9P2K8)
Experimental: as §1

EphB2 = EphB2 (Homo sapiens (Human), UniProt P29323)
Experimental: as §1

PIP4K2A = PIP4K2A (Homo sapiens (Human), UniProt P48426)
Experimental: as §1

CHK1 = CHK1 (Homo sapiens (Human), UniProt O14757)
Experimental: as §1

PKCz = PKCz (Homo sapiens (Human), UniProt Q05513)
Experimental: as §1

CK1g3 = CK1g3 (Homo sapiens (Human), UniProt Q9Y6M4)
Experimental: as §1

SGK3 = SGK3 (Homo sapiens (Human), UniProt Q96BR1)
Experimental: as §1

eEF2K = eEF2K (Homo sapiens (Human), UniProt O00418)
Experimental: as §1

RSKL1 = RSKL1 (Homo sapiens (Human), UniProt Q96S38)
Experimental: as §1

MARK2, MARK3 = test system: MARK2, MARK3
Experimental: as §1

MASTL = MASTL (Homo sapiens (Human), UniProt Q96GX5)
Experimental: as §1

BRAF = BRAF (Homo sapiens (Human), UniProt P15056)
Experimental: as §1

TBK1 = TBK1 (Homo sapiens (Human), UniProt Q9UHD2)
Experimental: as §1

CDC2 = CDC2 (Homo sapiens (Human), UniProt P06493)
Experimental: as §1

PKR = PKR (Homo sapiens (Human), UniProt P19525)
Experimental: as §1

FRAP = FRAP (Homo sapiens (Human), UniProt P42345)
Experimental: as §1

LATS1 = LATS1 (Homo sapiens (Human), UniProt O95835)
Experimental: as §1

MAP2K1 = MAP2K1 (Homo sapiens (Human), UniProt Q02750)
Experimental: as §1

PKD3 = PKD3 (Homo sapiens (Human), UniProt O94806)
Experimental: as §1

AurA, AurB, AurC = test system: AurA, AurB, AurC
Experimental: as §1

LOK = LOK (Homo sapiens (Human), UniProt O94804)
Experimental: as §1

SNRK = SNRK (Homo sapiens (Human), UniProt Q9NRH2)
Experimental: as §1

FER = FER (Homo sapiens (Human), UniProt P16591)
Experimental: as §1

BARK1 = BARK1 (Homo sapiens (Human), UniProt P25098)
Experimental: as §1

IKKa = IKKa (Homo sapiens (Human), UniProt O15111)
Experimental: as §1

LYN = LYN (Homo sapiens (Human), UniProt P07948)
Experimental: as §1

MAP3K2, MAP3K3 = test system: MAP3K2, MAP3K3
Experimental: as §1

NEK3 = NEK3 (Homo sapiens (Human), UniProt P51956)
Experimental: as §1

Chain of GCN2 domain2 (Q9P2K8 whole entry, the tested form may be a part): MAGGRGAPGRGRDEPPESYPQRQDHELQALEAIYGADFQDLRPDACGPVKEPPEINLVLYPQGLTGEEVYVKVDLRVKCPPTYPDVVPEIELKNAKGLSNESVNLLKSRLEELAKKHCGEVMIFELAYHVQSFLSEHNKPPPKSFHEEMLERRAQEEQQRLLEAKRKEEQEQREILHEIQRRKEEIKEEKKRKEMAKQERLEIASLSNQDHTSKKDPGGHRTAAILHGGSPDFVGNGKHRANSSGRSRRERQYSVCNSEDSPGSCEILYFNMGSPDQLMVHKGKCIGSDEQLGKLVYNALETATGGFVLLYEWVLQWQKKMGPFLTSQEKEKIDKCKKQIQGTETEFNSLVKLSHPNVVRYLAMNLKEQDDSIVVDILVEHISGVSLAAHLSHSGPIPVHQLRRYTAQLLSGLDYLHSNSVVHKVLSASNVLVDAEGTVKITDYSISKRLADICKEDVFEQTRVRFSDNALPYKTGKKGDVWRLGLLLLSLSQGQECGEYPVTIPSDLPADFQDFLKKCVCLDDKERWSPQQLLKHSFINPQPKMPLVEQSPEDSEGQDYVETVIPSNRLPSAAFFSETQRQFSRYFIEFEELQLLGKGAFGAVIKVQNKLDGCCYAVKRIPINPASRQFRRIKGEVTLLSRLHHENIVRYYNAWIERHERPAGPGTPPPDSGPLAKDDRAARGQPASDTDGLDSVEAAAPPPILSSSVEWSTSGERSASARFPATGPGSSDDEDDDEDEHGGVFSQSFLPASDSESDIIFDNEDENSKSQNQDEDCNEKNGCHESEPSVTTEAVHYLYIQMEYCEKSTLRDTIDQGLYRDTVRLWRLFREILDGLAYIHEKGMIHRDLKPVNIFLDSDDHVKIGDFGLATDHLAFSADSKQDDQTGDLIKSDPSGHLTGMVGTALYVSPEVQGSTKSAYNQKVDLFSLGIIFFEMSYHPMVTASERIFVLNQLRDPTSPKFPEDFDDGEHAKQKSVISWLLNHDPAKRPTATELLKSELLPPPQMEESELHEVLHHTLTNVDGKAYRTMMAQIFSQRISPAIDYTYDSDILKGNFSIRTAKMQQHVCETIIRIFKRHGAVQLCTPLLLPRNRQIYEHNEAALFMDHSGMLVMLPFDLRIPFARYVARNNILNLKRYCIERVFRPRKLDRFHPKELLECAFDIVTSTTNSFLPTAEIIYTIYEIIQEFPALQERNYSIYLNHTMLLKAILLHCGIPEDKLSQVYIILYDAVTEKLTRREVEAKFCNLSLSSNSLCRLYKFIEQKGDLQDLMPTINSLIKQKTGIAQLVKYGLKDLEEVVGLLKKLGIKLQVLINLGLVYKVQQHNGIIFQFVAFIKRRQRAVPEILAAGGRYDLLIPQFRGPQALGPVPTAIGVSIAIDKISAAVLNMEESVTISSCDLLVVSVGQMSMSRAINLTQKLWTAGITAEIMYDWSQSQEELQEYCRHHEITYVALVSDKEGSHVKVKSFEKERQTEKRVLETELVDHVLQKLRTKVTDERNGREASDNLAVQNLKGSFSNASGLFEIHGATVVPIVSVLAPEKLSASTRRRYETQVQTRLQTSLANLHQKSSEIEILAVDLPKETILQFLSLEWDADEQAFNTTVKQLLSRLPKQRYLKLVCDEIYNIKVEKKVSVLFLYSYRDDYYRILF
Chain of PKD3 (O94806 whole entry): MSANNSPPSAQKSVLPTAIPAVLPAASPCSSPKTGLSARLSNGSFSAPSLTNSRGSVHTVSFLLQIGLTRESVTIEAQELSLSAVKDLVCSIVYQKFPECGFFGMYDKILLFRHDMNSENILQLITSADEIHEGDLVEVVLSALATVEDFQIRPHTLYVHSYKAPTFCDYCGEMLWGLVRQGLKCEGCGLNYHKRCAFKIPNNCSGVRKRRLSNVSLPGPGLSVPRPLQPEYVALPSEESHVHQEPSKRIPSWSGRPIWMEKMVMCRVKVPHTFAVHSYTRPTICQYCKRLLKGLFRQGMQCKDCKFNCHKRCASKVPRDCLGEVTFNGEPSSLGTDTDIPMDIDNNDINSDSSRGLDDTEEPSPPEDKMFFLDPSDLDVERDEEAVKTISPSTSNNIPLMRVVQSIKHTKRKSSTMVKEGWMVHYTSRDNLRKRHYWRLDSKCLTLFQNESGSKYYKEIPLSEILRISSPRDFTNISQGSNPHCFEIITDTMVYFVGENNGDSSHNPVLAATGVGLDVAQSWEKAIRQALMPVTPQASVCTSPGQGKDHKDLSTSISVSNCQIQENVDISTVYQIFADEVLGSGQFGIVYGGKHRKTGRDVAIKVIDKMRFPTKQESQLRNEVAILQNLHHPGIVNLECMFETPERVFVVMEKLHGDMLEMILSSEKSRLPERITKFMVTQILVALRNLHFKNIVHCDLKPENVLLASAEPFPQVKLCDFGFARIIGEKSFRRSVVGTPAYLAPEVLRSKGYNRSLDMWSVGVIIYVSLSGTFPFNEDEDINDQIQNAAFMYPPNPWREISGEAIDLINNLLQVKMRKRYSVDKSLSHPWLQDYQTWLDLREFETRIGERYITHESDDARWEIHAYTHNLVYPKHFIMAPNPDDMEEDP
Chain of BARK1 (P25098 whole entry): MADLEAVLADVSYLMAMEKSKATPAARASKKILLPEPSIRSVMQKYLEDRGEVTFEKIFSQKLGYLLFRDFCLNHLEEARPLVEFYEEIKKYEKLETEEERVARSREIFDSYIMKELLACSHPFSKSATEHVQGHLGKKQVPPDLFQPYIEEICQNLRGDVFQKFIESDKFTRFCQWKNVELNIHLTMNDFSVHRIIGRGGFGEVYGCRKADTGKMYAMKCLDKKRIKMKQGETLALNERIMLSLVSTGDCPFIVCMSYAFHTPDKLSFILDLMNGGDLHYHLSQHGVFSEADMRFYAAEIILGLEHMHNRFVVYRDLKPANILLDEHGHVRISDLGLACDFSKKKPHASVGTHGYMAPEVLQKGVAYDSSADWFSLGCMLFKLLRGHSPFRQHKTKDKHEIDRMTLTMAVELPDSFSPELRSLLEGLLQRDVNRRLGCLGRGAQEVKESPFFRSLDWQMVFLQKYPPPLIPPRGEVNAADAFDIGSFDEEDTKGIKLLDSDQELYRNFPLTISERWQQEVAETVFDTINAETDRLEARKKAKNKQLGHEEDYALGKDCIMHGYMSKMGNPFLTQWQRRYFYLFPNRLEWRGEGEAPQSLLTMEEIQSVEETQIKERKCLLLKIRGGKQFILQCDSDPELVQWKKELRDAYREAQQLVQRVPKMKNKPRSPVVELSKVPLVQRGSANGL
Chain of CK1g3 (Q9Y6M4 whole entry): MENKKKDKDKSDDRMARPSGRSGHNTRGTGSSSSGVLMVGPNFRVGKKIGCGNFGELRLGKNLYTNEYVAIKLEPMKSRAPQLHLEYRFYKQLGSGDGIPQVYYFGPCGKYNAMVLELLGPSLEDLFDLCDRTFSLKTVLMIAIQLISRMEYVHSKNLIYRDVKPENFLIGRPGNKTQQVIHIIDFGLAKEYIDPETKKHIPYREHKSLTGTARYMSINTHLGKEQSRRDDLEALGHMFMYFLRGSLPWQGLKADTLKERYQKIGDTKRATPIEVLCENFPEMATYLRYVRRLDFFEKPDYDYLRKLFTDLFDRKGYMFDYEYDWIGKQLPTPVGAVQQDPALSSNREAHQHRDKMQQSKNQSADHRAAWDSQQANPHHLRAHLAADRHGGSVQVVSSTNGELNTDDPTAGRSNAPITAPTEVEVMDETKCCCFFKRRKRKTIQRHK
Chain of TBK1 (Q9UHD2 whole entry): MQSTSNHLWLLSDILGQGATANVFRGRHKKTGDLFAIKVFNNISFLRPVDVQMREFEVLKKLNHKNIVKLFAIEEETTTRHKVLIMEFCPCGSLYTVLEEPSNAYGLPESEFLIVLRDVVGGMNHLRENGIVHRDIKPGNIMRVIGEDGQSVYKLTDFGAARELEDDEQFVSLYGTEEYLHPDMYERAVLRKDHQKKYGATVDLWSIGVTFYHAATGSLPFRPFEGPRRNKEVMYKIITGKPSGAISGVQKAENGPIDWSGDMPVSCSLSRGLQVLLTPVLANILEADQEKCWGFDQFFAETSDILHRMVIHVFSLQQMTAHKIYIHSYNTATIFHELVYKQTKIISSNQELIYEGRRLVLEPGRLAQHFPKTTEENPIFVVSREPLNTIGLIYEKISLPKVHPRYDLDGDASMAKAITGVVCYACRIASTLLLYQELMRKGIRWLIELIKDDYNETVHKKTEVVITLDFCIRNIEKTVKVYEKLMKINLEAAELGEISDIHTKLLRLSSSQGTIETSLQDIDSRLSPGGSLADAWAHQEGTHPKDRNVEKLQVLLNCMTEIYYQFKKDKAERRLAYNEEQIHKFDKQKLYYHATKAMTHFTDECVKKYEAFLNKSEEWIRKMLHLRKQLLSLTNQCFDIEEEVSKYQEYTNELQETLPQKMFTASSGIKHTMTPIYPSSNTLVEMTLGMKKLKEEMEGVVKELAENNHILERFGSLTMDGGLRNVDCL
Chain of SGK3 (Q96BR1 whole entry): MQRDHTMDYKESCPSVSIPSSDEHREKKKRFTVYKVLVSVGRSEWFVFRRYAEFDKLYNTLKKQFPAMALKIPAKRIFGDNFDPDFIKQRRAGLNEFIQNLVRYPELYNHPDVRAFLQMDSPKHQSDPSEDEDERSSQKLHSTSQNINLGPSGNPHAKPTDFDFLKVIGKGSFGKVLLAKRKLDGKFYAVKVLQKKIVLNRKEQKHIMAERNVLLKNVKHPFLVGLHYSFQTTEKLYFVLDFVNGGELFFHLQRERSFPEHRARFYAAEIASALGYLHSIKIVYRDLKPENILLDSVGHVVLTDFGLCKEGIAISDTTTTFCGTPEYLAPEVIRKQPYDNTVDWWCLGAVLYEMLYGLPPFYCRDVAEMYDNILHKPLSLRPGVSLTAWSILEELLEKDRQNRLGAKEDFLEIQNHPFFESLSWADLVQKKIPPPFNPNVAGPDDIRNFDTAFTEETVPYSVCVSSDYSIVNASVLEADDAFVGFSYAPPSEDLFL

Nc1ncc(-c2cccc3ncsc23)cc1-c1ccc2c(c1)CCNC2=O [Compound I-13, 6-(2-amino-5-(benzo[d]thiazol-7-yl)pyridin-3-yl)-3,4-dihydroisoquinolin-1(2H)-one]
% inhibition (range) ([1]; 10 μM): >90% | inhibition (10 μM) [1]: 97.0% | inhibition at 10 µM (MPSK1; read-out: % inhibition (range)): 0% | inhibition at 10 µM (MPSK1; read-out: inhibition (10 μM)): -28.8% | % inhibition (range) (MAPKAPK2, MAPKAPK3; 10 μM): 0.0% | inhibition (10 μM) (MAPKAPK2, MAPKAPK3): 2.5% | inhibition at 10 µM (PHKg2; read-out: % inhibition (range)): 0% | inhibition at 10 µM (PHKg2; read-out: inhibition (10 μM)): -27.5% | inhibition at 10 µM (RSK1 domain2; read-out: % inhibition (range)): 0% | inhibition at 10 µM (RSK1 domain2; read-out: inhibition (10 μM)): -7.7% | inhibition at 10 µM (GCN2 domain2; read-out: % inhibition (range)): 0% | inhibition at 10 µM (GCN2 domain2; read-out: inhibition (10 μM)): 13.5% | inhibition at 10 µM (EphB2; read-out: % inhibition (range)): 0% | inhibition at 10 µM (EphB2; read-out: inhibition (10 μM)): 22.1% | inhibition at 10 µM (PIP4K2A; read-out: % inhibition (range)): 0% | inhibition at 10 µM (PIP4K2A; read-out: inhibition (10 μM)): 2.3% | inhibition at 10 µM (CHK1; read-out: % inhibition (range)): 0% | inhibition at 10 µM (CHK1; read-out: inhibition (10 μM)): -8.9% | inhibition at 10 µM (PKCz; read-out: % inhibition (range)): 0% | inhibition at 10 µM (PKCz; read-out: inhibition (10 μM)): 15.5% | inhibition at 10 µM (CK1g3; read-out: % inhibition (range)): > 90% | inhibition at 10 µM (CK1g3; read-out: inhibition (10 μM)): 90.4% | inhibition at 10 µM (SGK3; read-out: % inhibition (range)): 0% | inhibition at 10 µM (SGK3; read-out: inhibition (10 μM)): 13.1% | inhibition at 10 µM (eEF2K; read-out: % inhibition (range)): 0% | inhibition at 10 µM (eEF2K; read-out: inhibition (10 μM)): -45.5% | inhibition at 10 µM (RSKL1; read-out: % inhibition (range)): 0% | inhibition at 10 µM (RSKL1; read-out: inhibition (10 μM)): 1.6% | % inhibition (range) (MARK2, MARK3; 10 μM): 0.0% | inhibition (10 μM) (MARK2, MARK3): 14.8% | inhibition at 10 µM (MASTL; read-out: % inhibition (range)): 0% | inhibition at 10 µM (MASTL; read-out: inhibition (10 μM)): -2% | inhibition at 10 µM (BRAF; read-out: % inhibition (range)): 0% | inhibition at 10 µM (BRAF; read-out: inhibition (10 μM)): 10.2% | inhibition at 10 µM (TBK1; read-out: % inhibition (range)): 0% | inhibition at 10 µM (TBK1; read-out: inhibition (10 μM)): -23.1% | inhibition at 10 µM (CDC2; read-out: % inhibition (range)): 0% | inhibition at 10 µM (CDC2; read-out: inhibition (10 μM)): -15% | inhibition at 10 µM (PKR; read-out: % inhibition (range)): 0% | inhibition at 10 µM (PKR; read-out: inhibition (10 μM)): -21.7% | inhibition at 10 µM (FRAP; read-out: % inhibition (range)): 0% | inhibition at 10 µM (FRAP; read-out: inhibition (10 μM)): 32.5% | inhibition at 10 µM (LATS1; read-out: % inhibition (range)): 0% | inhibition at 10 µM (LATS1; read-out: inhibition (10 μM)): 14.7% | inhibition at 10 µM (MAP2K1; read-out: % inhibition (range)): 0% | inhibition at 10 µM (MAP2K1; read-out: inhibition (10 μM)): -27.4% | inhibition at 10 µM (PKD3; read-out: % inhibition (range)): 50 to 75% | inhibition at 10 µM (PKD3; read-out: inhibition (10 μM)): 69.4% | % inhibition (range) (AurA, AurB, AurC; 10 μM): 0.0% | inhibition (10 μM) (AurA, AurB, AurC): 17.7% | inhibition at 10 µM (LOK; read-out: % inhibition (range)): 50 to 75% | inhibition at 10 µM (LOK; read-out: inhibition (10 μM)): 61.5% | inhibition at 10 µM (SNRK; read-out: % inhibition (range)): 0% | inhibition at 10 µM (SNRK; read-out: inhibition (10 μM)): 6.2% | inhibition at 10 µM (FER; read-out: % inhibition (range)): 0% | inhibition at 10 µM (FER; read-out: inhibition (10 μM)): 4.2% | inhibition at 10 µM (BARK1; read-out: % inhibition (range)): 0% | inhibition at 10 µM (BARK1; read-out: inhibition (10 μM)): 21.8% | inhibition at 10 µM (IKKa; read-out: % inhibition (range)): 0% | inhibition at 10 µM (IKKa; read-out: inhibition (10 μM)): 2.6% | inhibition at 10 µM (LYN; read-out: % inhibition (range)): 0% | inhibition at 10 µM (LYN; read-out: inhibition (10 μM)): -41.4% | % inhibition (range) (MAP3K2, MAP3K3; 10 μM): 0.0% | inhibition (10 μM) (MAP3K2, MAP3K3): 0.2% | inhibition at 10 µM (NEK3; read-out: % inhibition (range)): 0% | inhibition at 10 µM (NEK3; read-out: inhibition (10 μM)): 5.3%
